The structures appear in SMILES notation.

The target in test [1] is TSPO (Rattus norvegicus, UniProt P16257). To be noted: ischemic rat brain, previously published data; cited from earlier work.
Test [2] concerns TSPO. As to the kind of experiment: In vitro autoradiography of postmortem human brain. Type of test: binding. To be noted: postmortem human temporal cortex sections, 0.5 nM radioligand.

TSPO (Rattus norvegicus, UniProt P16257), sequence (P16257 whole entry): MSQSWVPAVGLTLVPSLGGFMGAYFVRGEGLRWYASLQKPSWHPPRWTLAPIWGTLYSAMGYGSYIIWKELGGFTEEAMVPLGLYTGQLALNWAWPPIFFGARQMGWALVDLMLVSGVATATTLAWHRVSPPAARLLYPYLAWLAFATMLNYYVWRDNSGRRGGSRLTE

As for `CC[C@@H](C)N([11CH3])C(=O)c1cc2ccccc2c(-c2ccccc2Cl)n1` [(R)[^11C]PK11195], on TSPO [1], the “apparent BPND (SRTM)” value is reported as 1.59 ± 0.33. With `CCN(Cc1ccccc1)C(=O)Cn1c(=O)n(C)c2cnc(-c3ccccc3)nc21` [[^11C]AC-5216], the “binding ratio for HAB-1 to that of LAB-1, RB(H/L) (also printed RB(L/H))” value with TSPO [2] is approximately 4.60. The same measure, in the same setting: the value for `COc1ccc(O[11CH3])c(CN(C(C)=O)c2cc(F)ccc2Oc2ccccc2)c1` [[^11C]DAA1106] was approximately 1.19.

These data come from paper PMC4493534 (Theranostics, 2015).
